The results in this text go back to article PMC11233931, “Remodeling tumor‐associated macrophage for anti‐cancer effects by rational design of irreversible inhibition of mitogen‐activated protein kinase‐activated protein kinase 2” (MedComm, 2024).

What is called inhibition is the change of the read-out against control, counted positive when it falls.

Assay in all cases: Eurofins kinase selectivity profile against 380 other human recombinant kinases (Table S2)
Holding throughout (format): biochemical

Assay [1] has as its target T1, 380 human recombinant protein kinases (Homo sapiens, UniProt Q16288).
T1 construct: purchased Eurofins (Celle Lévescault)
The following applies: TrkC(h), read-out: Inhibition rate (%). Here is the method: (§1) Subsequently, to ascertain whether the high potency of compound 11 was specific for MK2, an additional 380 human recombinant protein kinases were screened.
(§2) To assess the impact of various compounds on MK2 kinase activity, we utilized the ADP‐Glo Assay Kit (Promega) following the manufacturer's instructions. Luminescence measurements were taken using a SpectraMax Paradigm reader. The inhibition percentage was calculated using the following formula: ((specific signalDMSO control − specific signal inhibitor)/(specific signalDMSO control)) × 100%. The IC50 values were determined employing dose–response curve fitting via Prism (Graph Pad). Additionally, Eurofins company (Celle Lévescault) conducted the analysis on compound 11’s inhibitory activity against 380 other human recombinant kinases at various concentrations.

For assay [2], the target named is T2, 380 human recombinant protein kinases (Homo sapiens, UniProt Q13976).
T2 construct: purchased Eurofins (Celle Lévescault)
T2 sequence (Q13976 1-671): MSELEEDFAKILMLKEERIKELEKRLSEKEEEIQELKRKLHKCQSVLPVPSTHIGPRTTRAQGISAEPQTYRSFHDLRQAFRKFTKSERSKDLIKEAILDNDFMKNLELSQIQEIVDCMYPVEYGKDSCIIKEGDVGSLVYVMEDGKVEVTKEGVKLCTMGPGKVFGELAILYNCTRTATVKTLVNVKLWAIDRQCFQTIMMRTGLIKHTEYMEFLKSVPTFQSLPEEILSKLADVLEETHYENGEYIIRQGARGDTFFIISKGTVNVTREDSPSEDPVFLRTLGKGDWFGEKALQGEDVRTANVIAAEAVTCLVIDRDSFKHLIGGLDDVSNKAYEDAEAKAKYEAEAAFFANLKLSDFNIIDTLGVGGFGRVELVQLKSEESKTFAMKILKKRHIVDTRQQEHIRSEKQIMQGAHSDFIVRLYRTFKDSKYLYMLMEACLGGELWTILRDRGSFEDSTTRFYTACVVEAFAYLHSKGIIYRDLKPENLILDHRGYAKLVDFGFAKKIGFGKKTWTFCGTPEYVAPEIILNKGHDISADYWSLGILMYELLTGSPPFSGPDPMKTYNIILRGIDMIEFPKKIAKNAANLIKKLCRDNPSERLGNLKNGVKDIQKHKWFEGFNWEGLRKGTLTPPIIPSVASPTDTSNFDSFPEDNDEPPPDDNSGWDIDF
To be noted: PKG1α(h), read-out: Inhibition rate. Here is the method: as §1, §2

In assay [3] the target is T3, 380 human recombinant protein kinases (Homo sapiens, UniProt Q96PF2).
T3 construct: purchased Eurofins (Celle Lévescault)
T3 sequence (Q96PF2 1-358): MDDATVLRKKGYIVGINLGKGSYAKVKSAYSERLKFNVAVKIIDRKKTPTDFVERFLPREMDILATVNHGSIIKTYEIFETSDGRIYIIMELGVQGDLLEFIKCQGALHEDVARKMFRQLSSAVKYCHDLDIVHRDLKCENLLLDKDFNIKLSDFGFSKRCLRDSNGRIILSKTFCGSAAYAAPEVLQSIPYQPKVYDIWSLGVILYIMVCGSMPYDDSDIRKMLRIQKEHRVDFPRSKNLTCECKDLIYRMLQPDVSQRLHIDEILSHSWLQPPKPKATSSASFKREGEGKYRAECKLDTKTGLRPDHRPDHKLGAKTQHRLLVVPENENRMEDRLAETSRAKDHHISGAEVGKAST
The following applies: TSSK2(h), read-out: Inhibition rate (%). Here is the method: as §1, §2

Assay [4] deals with T4, 380 human recombinant protein kinases (Homo sapiens, UniProt P04629).
T4 construct: purchased Eurofins (Celle Lévescault)
T4 sequence (P04629 33-796): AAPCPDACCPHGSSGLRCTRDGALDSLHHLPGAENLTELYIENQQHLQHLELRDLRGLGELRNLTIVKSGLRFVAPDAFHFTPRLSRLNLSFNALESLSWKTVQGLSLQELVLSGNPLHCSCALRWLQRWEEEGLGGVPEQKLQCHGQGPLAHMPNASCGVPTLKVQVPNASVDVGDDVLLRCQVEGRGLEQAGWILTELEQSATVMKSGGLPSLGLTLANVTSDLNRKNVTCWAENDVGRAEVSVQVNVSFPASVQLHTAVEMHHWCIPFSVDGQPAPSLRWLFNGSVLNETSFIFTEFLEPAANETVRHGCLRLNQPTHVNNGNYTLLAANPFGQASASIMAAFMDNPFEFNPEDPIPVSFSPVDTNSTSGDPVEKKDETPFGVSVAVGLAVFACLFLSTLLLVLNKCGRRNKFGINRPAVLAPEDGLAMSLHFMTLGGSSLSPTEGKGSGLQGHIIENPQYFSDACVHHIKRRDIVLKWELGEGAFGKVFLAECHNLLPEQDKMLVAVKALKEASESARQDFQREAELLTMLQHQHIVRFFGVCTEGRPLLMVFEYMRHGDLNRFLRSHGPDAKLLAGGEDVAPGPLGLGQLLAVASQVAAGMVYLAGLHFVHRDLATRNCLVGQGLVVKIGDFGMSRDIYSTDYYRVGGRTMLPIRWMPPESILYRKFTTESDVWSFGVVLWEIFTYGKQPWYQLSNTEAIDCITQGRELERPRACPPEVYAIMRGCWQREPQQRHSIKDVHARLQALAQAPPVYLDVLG
To be noted: TrkA(h), read-out: Inhibition rate (%). Here is the method:
as §1, §2

Assay [5] deals with T5, 380 human recombinant protein kinases (Homo sapiens, UniProt P78368).
T5 construct: purchased Eurofins (Celle Lévescault)
T5 sequence (P78368 whole entry): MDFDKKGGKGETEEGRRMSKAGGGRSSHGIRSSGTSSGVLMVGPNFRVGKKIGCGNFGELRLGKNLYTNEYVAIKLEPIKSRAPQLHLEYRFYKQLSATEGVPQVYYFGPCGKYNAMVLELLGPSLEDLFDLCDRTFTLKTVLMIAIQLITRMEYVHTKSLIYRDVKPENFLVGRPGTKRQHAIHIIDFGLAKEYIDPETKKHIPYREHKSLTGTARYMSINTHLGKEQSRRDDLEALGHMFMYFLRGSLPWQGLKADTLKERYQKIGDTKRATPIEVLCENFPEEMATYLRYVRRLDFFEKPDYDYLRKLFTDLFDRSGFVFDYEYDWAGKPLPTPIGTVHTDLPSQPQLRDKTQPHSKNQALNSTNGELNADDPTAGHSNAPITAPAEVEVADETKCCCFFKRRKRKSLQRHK
To be noted: CK1γ2(h), read-out: Inhibition rate. Here is the method: as §1, §2

The target of assay [6] is T6, 380 human recombinant protein kinases (Homo sapiens, UniProt Q15831).
T6 construct: purchased Eurofins (Celle Lévescault)
T6 sequence (Q15831 1-433): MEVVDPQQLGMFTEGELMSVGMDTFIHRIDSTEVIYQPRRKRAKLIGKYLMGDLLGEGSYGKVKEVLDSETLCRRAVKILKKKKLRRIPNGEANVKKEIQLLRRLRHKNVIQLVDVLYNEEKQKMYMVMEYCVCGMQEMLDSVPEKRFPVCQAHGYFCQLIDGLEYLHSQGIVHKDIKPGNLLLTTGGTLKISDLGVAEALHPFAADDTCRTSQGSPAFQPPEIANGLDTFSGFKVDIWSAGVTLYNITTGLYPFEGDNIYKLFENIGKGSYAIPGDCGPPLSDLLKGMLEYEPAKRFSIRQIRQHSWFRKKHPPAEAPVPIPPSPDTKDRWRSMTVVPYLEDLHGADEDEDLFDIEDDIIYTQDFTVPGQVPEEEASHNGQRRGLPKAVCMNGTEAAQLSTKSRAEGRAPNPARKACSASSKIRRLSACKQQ
The following applies: LKB1(h), read-out: Inhibition rate. Here is the method: as §1, §2

In assay [7] the target is T7, 380 human recombinant protein kinases (Homo sapiens, UniProt Q9P0L2).
T7 construct: purchased Eurofins (Celle Lévescault)
T7 sequence (Q9P0L2 whole entry): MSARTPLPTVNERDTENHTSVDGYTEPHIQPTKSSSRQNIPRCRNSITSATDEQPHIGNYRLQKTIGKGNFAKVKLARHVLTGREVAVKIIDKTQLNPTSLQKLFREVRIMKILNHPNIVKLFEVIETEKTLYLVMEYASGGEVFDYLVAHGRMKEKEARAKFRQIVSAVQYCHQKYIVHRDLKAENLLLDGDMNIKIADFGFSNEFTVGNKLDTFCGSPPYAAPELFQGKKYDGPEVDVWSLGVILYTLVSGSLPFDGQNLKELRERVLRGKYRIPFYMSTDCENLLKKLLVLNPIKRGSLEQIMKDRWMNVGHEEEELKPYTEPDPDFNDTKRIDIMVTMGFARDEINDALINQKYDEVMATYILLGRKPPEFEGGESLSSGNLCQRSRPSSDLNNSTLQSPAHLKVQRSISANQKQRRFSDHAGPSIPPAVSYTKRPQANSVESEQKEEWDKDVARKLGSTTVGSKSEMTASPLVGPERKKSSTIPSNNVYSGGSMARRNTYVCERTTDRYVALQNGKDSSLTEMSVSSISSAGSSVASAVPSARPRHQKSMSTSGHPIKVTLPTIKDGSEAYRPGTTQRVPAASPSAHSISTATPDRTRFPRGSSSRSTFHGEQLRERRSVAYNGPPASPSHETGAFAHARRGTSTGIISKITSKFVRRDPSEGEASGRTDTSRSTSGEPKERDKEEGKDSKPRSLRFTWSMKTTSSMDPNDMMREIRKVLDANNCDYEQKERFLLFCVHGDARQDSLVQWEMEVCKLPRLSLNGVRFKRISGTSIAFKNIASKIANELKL
To be noted: MARK1(h), read-out: Inhibition rate. As to the method: as §1, §2

The structures appear in SMILES notation.

T1 sequence (Q16288 32-839): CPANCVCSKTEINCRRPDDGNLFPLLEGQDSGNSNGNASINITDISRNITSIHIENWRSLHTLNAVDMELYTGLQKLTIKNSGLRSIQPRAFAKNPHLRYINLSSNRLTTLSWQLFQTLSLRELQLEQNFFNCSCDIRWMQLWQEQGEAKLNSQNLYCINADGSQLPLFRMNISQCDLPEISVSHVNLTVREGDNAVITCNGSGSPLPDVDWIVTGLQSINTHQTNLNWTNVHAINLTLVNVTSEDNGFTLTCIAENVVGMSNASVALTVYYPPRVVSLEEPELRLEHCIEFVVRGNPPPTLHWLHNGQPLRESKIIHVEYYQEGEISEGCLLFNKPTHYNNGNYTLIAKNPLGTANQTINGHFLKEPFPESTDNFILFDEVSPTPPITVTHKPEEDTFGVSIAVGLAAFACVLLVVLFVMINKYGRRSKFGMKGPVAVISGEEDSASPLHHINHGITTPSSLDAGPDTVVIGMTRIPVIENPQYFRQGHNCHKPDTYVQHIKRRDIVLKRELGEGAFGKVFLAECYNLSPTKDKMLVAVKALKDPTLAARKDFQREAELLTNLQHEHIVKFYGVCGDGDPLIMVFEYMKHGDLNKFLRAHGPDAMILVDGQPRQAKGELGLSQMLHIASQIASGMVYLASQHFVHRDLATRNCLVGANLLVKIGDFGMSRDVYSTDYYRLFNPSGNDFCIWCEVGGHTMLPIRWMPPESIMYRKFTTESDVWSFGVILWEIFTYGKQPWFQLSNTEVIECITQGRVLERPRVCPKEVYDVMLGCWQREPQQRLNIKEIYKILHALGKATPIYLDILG

With `C=CC(=O)Nc1cc(-c2cc(-c3cc4c([nH]3)CCNC4=O)ccn2)ccc1OC(F)(F)F` [compound 11], the inhibition at 0.01 µM is -3% in assay [1] (10 nM); 1% in assay [2] (10 nM); -7% in assay [3] (10 nM); -6% in assay [4] (10 nM); -7% in assay [5] (10 nM); -5% in assay [6] (10 nM). In addition, the inhibition at 0.01 µM in assay [7] (10 nM) is -1%. The inhibition at 0.1 µM in assay [1] (100 nM) was 4%; in assay [2] (100 nM) it was -4%; in assay [3] (100 nM), -5%; in assay [4] (100 nM) it was -1%; in assay [5] (100 nM) it was 29%; in assay [6] (100 nM) it was -3%. Besides, in assay [7] (100 nM), the inhibition at 0.1 µM was -12%. Moreover, the inhibition at 1 µM in assay [1] (1000 nM) was -3%; in assay [2] (1000 nM), 8%; in assay [3] (1000 nM) it was -5%; in assay [4] (1000 nM) it was 15%; in assay [5] (1000 nM), 74%; in assay [6] (1000 nM), -6%. In addition, the inhibition at 1 µM in assay [7] (1000 nM) is -4%.
